Legend:
Vasopressin V1a receptor = Vasopressin V1a receptor (Homo sapiens, UniProt P37288)
[1] = biological target: T1, Muscarinic acetylcholine receptor M2 (Homo sapiens, UniProt P08172); assay type: functional, cell-based
T1 sequence (P08172 whole entry): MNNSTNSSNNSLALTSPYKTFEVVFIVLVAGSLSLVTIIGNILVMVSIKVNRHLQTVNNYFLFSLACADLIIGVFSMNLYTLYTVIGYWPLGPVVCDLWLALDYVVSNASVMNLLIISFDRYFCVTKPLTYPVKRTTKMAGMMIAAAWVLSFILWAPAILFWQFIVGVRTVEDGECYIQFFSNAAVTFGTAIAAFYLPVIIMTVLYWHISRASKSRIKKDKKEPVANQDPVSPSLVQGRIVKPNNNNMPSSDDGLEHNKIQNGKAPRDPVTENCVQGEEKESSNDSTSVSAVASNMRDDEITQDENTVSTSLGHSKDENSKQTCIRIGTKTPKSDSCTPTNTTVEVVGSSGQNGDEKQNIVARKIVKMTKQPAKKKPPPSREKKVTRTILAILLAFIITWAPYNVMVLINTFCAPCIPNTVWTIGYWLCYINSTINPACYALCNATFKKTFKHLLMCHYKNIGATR

[2] = biological target: T2, Prostaglandin G/H synthase 1 (Rattus norvegicus, UniProt Q63921); assay type: functional
T2 sequence (Q63921 whole entry): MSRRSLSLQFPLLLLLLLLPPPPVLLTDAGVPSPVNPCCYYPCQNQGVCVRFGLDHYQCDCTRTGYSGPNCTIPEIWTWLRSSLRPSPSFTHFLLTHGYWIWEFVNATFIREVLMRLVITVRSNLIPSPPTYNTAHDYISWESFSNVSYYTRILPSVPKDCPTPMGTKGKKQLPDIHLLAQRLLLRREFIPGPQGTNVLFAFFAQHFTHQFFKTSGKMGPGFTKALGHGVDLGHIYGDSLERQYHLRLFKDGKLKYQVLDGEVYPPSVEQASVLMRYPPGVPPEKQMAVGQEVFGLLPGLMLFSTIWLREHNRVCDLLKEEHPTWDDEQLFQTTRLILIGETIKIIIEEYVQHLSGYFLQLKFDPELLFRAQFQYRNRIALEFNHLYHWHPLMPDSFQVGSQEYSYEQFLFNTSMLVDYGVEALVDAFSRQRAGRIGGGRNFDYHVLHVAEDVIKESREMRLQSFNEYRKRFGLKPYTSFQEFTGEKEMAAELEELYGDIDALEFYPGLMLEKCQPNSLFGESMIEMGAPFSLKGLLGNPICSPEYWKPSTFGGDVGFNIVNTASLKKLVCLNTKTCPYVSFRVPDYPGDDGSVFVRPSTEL

Melanocortin receptor 3 = Melanocortin receptor 3 (Homo sapiens, UniProt P41968)
[3] = biological target: T3, Alpha-2C adrenergic receptor (Homo sapiens, UniProt P18825); assay type: functional
T3 sequence (P18825 whole entry): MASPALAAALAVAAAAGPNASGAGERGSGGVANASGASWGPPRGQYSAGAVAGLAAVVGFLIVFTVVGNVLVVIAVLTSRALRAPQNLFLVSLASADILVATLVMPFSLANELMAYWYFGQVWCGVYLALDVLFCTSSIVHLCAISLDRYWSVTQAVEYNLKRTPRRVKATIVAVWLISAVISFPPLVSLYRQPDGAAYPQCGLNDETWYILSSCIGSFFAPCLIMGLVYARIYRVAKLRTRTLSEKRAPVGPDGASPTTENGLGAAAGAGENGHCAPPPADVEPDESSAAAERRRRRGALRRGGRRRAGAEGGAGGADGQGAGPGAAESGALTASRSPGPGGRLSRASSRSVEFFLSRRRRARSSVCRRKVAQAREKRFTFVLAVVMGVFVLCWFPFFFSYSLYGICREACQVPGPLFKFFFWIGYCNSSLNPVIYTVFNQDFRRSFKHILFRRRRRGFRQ

[4] = biological target: Delta-type opioid receptor (Homo sapiens, UniProt P41143)
[5] = biological target: 3',5'-cyclic-AMP phosphodiesterase 4D (Homo sapiens, UniProt Q08499); assay type: functional
[6] = biological target: Glutamate receptor ionotropic, NMDA 1 (Rattus norvegicus, UniProt P35439)
[7] = biological target: T4, Neuropeptide Y receptor type 1 (Homo sapiens, UniProt P25929)
T4 sequence (P25929 whole entry): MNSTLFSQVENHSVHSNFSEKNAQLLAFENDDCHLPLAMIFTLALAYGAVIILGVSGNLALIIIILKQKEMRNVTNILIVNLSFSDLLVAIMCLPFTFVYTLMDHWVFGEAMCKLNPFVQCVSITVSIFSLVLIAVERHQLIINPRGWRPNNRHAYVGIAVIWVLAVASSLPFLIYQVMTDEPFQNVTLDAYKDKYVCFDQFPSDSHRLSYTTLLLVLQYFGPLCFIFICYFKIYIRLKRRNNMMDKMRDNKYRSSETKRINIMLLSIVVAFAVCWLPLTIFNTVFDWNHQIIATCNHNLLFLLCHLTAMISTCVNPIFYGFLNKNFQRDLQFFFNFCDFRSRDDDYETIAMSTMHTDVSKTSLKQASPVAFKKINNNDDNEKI

[8] = biological target: Gamma-aminobutyric acid receptor subunit alpha-1 (Rattus norvegicus, UniProt P62813)
Also: assay procedure not described here.

Sequence of Melanocortin receptor 3 (P41968 whole entry): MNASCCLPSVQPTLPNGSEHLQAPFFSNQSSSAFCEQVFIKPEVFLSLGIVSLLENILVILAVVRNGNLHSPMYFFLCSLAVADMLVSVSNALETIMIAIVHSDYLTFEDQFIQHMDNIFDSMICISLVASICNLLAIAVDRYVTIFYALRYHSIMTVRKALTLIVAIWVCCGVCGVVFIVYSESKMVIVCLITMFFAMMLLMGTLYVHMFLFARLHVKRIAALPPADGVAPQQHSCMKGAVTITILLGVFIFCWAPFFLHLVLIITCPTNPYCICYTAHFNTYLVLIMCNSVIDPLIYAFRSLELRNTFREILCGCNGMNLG
Sequence of Vasopressin V1a receptor (P37288 whole entry): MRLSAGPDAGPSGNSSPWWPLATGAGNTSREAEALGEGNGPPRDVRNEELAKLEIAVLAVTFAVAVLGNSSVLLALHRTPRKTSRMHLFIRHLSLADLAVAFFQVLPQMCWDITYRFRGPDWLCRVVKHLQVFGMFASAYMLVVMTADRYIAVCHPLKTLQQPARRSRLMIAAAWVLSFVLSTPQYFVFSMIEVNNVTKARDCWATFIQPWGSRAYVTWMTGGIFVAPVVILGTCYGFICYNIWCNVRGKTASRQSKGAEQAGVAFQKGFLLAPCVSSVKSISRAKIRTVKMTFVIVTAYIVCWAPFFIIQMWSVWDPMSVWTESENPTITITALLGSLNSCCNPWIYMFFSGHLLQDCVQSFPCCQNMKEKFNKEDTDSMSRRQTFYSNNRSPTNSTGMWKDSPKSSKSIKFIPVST
Sequence of 3',5'-cyclic-AMP phosphodiesterase 4D (Q08499 whole entry): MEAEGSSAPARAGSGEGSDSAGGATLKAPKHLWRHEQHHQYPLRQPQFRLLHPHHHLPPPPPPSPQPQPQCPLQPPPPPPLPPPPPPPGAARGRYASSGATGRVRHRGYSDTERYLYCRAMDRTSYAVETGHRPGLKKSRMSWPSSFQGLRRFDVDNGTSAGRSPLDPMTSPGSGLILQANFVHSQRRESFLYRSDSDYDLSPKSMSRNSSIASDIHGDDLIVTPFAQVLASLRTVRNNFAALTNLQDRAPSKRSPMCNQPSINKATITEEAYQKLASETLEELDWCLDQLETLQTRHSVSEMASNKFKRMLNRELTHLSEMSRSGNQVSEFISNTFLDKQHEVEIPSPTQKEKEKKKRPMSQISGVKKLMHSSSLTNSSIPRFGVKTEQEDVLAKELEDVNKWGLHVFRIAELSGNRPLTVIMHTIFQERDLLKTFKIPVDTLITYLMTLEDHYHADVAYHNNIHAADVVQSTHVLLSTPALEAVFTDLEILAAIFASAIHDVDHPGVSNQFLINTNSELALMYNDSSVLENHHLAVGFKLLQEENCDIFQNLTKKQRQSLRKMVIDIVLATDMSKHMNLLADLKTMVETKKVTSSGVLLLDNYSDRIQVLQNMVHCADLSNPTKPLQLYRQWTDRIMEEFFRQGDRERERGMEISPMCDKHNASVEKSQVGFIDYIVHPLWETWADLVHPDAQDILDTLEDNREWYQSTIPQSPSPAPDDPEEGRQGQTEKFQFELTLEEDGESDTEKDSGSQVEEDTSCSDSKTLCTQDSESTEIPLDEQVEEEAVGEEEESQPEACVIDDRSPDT
Sequence of Gamma-aminobutyric acid receptor subunit alpha-1 (P62813 whole entry): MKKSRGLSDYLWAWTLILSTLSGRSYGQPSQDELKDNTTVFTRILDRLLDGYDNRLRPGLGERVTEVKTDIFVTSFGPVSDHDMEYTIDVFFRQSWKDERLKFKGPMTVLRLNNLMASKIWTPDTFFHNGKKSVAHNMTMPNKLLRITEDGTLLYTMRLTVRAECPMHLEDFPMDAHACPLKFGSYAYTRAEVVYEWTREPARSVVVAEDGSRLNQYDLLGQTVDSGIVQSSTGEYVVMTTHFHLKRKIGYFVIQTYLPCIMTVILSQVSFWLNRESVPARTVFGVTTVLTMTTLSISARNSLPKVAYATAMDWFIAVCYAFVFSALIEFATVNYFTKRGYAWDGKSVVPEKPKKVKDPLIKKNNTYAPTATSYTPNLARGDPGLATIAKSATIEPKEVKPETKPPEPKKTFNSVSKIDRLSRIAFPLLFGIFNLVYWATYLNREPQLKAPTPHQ
Sequence of Delta-type opioid receptor (P41143 whole entry): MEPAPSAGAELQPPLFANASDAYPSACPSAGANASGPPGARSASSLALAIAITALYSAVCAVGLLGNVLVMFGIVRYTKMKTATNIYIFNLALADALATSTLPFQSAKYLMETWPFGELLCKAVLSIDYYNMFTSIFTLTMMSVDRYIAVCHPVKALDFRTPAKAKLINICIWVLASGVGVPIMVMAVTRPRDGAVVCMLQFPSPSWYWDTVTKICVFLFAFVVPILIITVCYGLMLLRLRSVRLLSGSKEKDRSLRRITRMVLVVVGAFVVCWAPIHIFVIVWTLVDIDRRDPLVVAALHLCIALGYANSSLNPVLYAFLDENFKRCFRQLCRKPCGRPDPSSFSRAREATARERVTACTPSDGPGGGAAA

SMILES	AC50 (Vasopressin V1a receptor)	AC50 [1]	AC50 [2]	AC50 (Melanocortin receptor 3)	AC50 [3]	AC50 [4]	AC50 [5]	AC50 [6]	AC50 [7]	AC50 [8]
CC(=N)N1CC[C@H](SC2=C(C(=O)O)N3C(=O)[C@H]([C@@H](C)O)[C@H]3C2)C1	> 300 µM	> 300 µM	5.1 µM	> 300 µM	> 300 µM	290 µM	> 300 µM	–	–	–
CC(/C=C1\SC(=S)N(CC(=O)O)C1=O)=C\c1ccccc1	28 µM	> 30 µM	> 30 µM	> 30 µM	8.2 µM	9 µM	–	> 30 µM	> 30 µM	> 30 µM
CNCC[C@@H](Oc1ccccc1C)c1ccccc1 [ATOMOXETINE]	> 30 µM	–	> 30 µM	> 30 µM	> 30 µM	> 30 µM	> 30 µM	–	–	–
CCc1oc2ccccc2c1C(=O)c1cc(Br)c(O)c(Br)c1 [BENZBROMARONE]	> 30 µM	–	> 30 µM	> 30 µM	26 µM	> 30 µM	–	> 10 µM	–	> 10 µM
C=C(C)[C@@H]1CCC(C)=C[C@H]1c1c(O)cc(CCCCC)cc1O [CANNABIDIOL]	> 30 µM	> 0.3 µM	0.771 µM	25 µM	> 30 µM	> 30 µM	> 30 µM	–	–	–
CO/N=C(\C(=O)N[C@@H]1C(=O)N2C(C(=O)O)=C(COC(N)=O)CS[C@H]12)c1ccco1 [CEFUROXIME]	> 30 µM	> 30 µM	> 30 µM	> 30 µM	> 30 µM	> 30 µM	> 30 µM	> 30 µM	> 30 µM	–
[H]/N=C(\N/C(=N/[H])NCCCCCCNC(=N)NC(=N)Nc1ccc(Cl)cc1)Nc1ccc(Cl)cc1 [CHLORHEXIDINE]	14.7 µM	–	> 10 µM	0.49 µM	1.8 µM	> 10 µM	> 10 µM	> 10 µM	2.2 µM	> 10 µM
Clc1cccc(Cl)c1N=C1NCCN1 [CLONIDINE]	> 10 µM	> 10 µM	> 30 µM	> 30 µM	–	> 30 µM	> 30 µM	> 10 µM	> 30 µM	> 10 µM
CNCC[C@H](Oc1cccc2ccccc12)c1cccs1 [DULOXETINE]	> 30 µM	> 10 µM	> 30 µM	22.7 µM	1.4 µM	> 30 µM	–	> 10 µM	> 30 µM	> 10 µM
CC1(C)O[C@@H]2C[C@H]3[C@@H]4C[C@H](F)C5=CC(=O)C=C[C@]5(C)[C@H]4[C@@H](O)C[C@]3(C)[C@]2(C(=O)CO)O1 [FLUNISOLIDE]	–	> 30 µM	> 30 µM	> 30 µM	> 30 µM	> 30 µM	> 30 µM	–	–	–
CCC(=O)O[C@@H](O[P@](=O)(CCCCc1ccccc1)CC(=O)N1C[C@H](C2CCCCC2)C[C@H]1C(=O)O)C(C)C [FOSINOPRIL]	–	> 30 µM	–	–	> 30 µM	> 30 µM	> 30 µM	> 30 µM	–	> 30 µM
Nc1nc(O)c2ncn(COC(CO)CO)c2n1 [GANCICLOVIR]	–	> 30 µM	> 30 µM	> 30 µM	> 30 µM	> 30 µM	> 30 µM	> 30 µM	> 30 µM	> 30 µM
C[C@H]1Oc2cc(cnc2N)-c2c(nn(C)c2C#N)CN(C)C(=O)c2ccc(F)cc21 [LORLATINIB]	> 30 µM	> 30 µM	> 30 µM	> 30 µM	> 30 µM	> 30 µM	16 µM	–	–	–
CNCCC=C1c2ccccc2CCc2ccccc21 [NORTRIPTYLINE]	> 30 µM	1.9 µM	> 30 µM	11 µM	–	> 30 µM	7.5 µM	–	> 30 µM	> 30 µM
COc1ccc(Cc2nccc3cc(OC)c(OC)cc23)cc1OC [PAPAVERINE]	–	> 30 µM	> 30 µM	> 30 µM	> 30 µM	–	–	> 30 µM	> 30 µM	> 30 µM
CNC(=O)c1cc(Oc2ccc(NC(=O)Nc3ccc(Cl)c(C(F)(F)F)c3)c(F)c2)ccn1 [REGORAFENIB]	–	> 30 µM	> 30 µM	> 30 µM	> 30 µM	> 30 µM	> 30 µM	–	–	–
CCOc1cc(CC(=O)N[C@@H](CC(C)C)c2ccccc2N2CCCCC2)ccc1C(=O)O [REPAGLINIDE]	> 30 µM	> 30 µM	> 30 µM	> 30 µM	> 30 µM	> 30 µM	9.6 µM	–	–	–
NC(=O)c1ncn([C@@H]2O[C@H](CO)[C@@H](O)[C@H]2O)n1 [RIBAVIRIN]	–	> 10 µM	> 10 µM	> 10 µM	> 10 µM	> 30 µM	> 30 µM	> 10 µM	> 10 µM	> 10 µM
O=C(Nc1c(Cl)cncc1Cl)c1ccc(OC(F)F)c(OCC2CC2)c1 [ROFLUMILAST]	> 30 µM	> 30 µM	> 30 µM	> 30 µM	> 30 µM	–	–	> 30 µM	> 30 µM	> 30 µM
CCCN(CCc1cccs1)[C@H]1CCc2c(O)cccc2C1 [ROTIGOTINE]	> 30 µM	> 10 µM	> 30 µM	> 30 µM	0.4 µM	25 µM	> 30 µM	–	–	–
CC[C@H]1OC(=O)[C@H](C)[C@@H](O[C@H]2C[C@@](C)(OC)[C@@H](O)[C@H](C)O2)[C@H](C)[C@@H](O[C@@H]2O[C@H](C)C[C@H](N(C)C)[C@H]2O)[C@](C)(O)C[C@@H](C)/C(=N\OCOCCOC)[C@H](C)[C@@H](O)[C@]1(C)O [ROXITHROMYCIN]	–	> 30 µM	> 30 µM	> 30 µM	> 30 µM	> 30 µM	> 30 µM	–	–	–
Cn1c(=O)c2[nH]cnc2n(C)c1=O [THEOPHYLLINE]	> 30 µM	> 10 µM	> 30 µM	> 30 µM	> 10 µM	> 30 µM	–	> 10 µM	> 30 µM	> 10 µM
CN1CCN(CCCN2c3ccccc3Sc3ccc(S(=O)(=O)N(C)C)cc32)CC1 [THIOPROPERAZINE]	–	12 µM	–	–	2.6 µM	29 µM	13 µM	> 10 µM	–	> 30 µM

Reference: ChEMBL document CHEMBL5291721, “A preclinical secondary pharmacology resource illuminates target-adverse drug reaction associations of marketed drugs” (Nat Commun, 2023)
